Measurements from article PMC9526870 (iScience, 2022).

Tested on: SARS-CoV-2
Type: cell-based

Structure (SMILES): CCC(CC)COC(=O)[C@H](C)N[P@](=O)(OC[C@H]1O[C@@](C#N)(c2ccc3c(N)ncnn23)[C@H](O)[C@@H]1O)Oc1ccccc1 [remdesivir]
- SARS-CoV-2 fluorescence signal in host cells (in words): depletion of the SARS-CoV-2 fluorescence signal
